Source: US20240226131A1, “2'-CHLORO-2'-FLUORO-N2-AMINO-N6-M[…] NUCLEOTIDES FOR […]” (priority 2021, published 2024)

What was measured:
[1] = system: Dengue virus (DENV-2), New Guinea C; experiment: microbe, parasite or virus in culture; assay type: cell-based; settings: DENV2, Huh-7, 144 h, read-out: EC50 (concentration required to prevent virus-induced CPE by 50%)
[2] = system: West Nile virus (WN02 Kern 515); experiment: microbe, parasite or virus in culture; assay type: cell-based; settings: Huh-7, 144 h, read-out: EC50 (concentration required to prevent virus-induced CPE by 50%)
[3] = system: Yellow Fever virus (YFV 17D); experiment: microbe, parasite or virus in culture; assay type: cell-based; settings: Huh-7, 120 h, read-out: EC50 (concentration required to prevent virus-induced CPE by 50%)
in vitro = settings: human

In the case of CNc1nc(N)nc2c1ncn2[C@@H]1O[C@H](CO[P@@](=O)(N[C@@H](C)C(=O)OC(C)C)Oc2ccccc2)[C@@H](O)[C@]1(F)Cl [Compound 8, (S)-Isopropyl-2-(((S)-(((2R,3R,4S,5R)-5-(2-amino-6-(methylamino)-9H-purin-9-yl)-4-chloro-4-fluoro-3-hydroxytetrahydrofuran-2-yl)methoxy)(phenoxy)phosphoryl)amino) propanoate], the EC50 [1] is reported as 320 nM, the EC50 [2] is reported as 320 nM and the EC50 [3] is reported as 120 nM. For the same compound, the CC50 (in vitro) was greater than 100000 nM.
